# Tests used:
# [1] = daily release or elution of Bimatoprost in vitro versus time (FIG. 8); type: physicochemical; conditions: four-hundred-day study
# Description: FIG. 8 is an exemplary graph of daily release or elution of a pharmaceutical or therapeutic agent in vitro versus time. […] The target release rate in this study on rabbits was 0.050 to 0.100 micrograms per day.
# [2] = Bimatoprost sampled in the aqueous humor of dogs over time (FIG. 9); type: in vivo
# Description: FIG. 9 is an exemplary graph of a therapeutic agent delivered to the aqueous humor of an eye of canines versus time.
# In this example, there was a low dose group of dogs (Grp 1), a mid-dose group of dogs (Grp 2), a high dose group of dogs (Grp 3), and a placebo group of dogs (Grp 4).
smiles,measurement,setting,value
CCNC(=O)CCC/C=C\C[C@@H]1[C@@H](/C=C/[C@@H](O)CCc2ccccc2)[C@H](O)C[C@@H]1O [Bimatoprost],average release rate,[1],less than 0.100 micrograms per day
same,release rate over the study (release kinetics),[1],essentially a zero-order and/or a steady state elution rate
same,level of Bimatoprost in the aqueous humor (elution kinetics),"[2]; low dose (Grp 1), mid-dose (Grp 2), high dose (Grp 3) groups, study period of about one hundred thirteen days",zero-order elution rate
same,mean measurements of Bimatoprost in the aqueous humor (dose dependence),"[2]; low, mid and high dose groups, FIG. 9",increased with the higher doses
